Like-named read-outs stand apart in the source and are kept apart here.
What was measured:
[1] = tested on: Key Grass and Sedge Weeds as well as Grass Crops; assay: Post-Emergent Test II: postemergent herbicidal activity, visual rating after 14 d (Table 8); format: in vivo; conditions: post-emergence, 336 h; for pest or weed control at 35 g/ha: 35 g ai/ha; for pest or weed control at 70 g/ha: 70 g ai/ha; for pest or weed control at 140 g/ha: 140 g ai/ha
Outline: (§1)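 Scoring is visual, 0-100, at 14 d after application, comparing treated with untreated plants. Application: overhead track spray at 187 L/ha onto seedlings at 1-2 true leaves, in surfactant/crop-oil carrier.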

[2] = tested on: Key Broadleaf Weed and Crop Species; assay: Post-Emergent Test II: postemergent herbicidal activity, visual rating after 14 d (Table 7); format: in vivo; conditions: post-emergence, 336 h; for pest or weed control at 35 g/ha: 35 g ai/ha; for pest or weed control at 70 g/ha: 70 g ai/ha; for pest or weed control at 140 g/ha: 140 g ai/ha
Outline: as §1

[3] = barnyardgrass (Echinochloa crus-galli), read-out: Visual Growth Reduction (%) 14 Days After Application ECHCG
[4] = giant foxtail (Setaria faberi), read-out: Visual Growth Reduction (%) 14 Days After Application SETFA
[5] = maize, corn (Zea mays), read-out: Visual Growth Reduction (%) 14 Days After Application ZEAMX
[6] = rice (Oryza sativa), read-out: Visual Growth Reduction (%) 14 Days After Application ORYSA
[7] = wheat, spring (Triticum aestivum), read-out: Visual Growth Reduction (%) 14 Days After Application TRZAS
[8] = yellow nutsedge (Cyperus esculentus), read-out: Visual Growth Reduction (%) 14 Days After Application CYPES
[9] = lambsquarters (Chenopodium album), read-out: Visual Growth Reduction (%) 14 Days After Application CHEAL
[10] = oilseed rape, canola (Brassica napus), read-out: Visual Growth Reduction (%) 14 Days After Application BRSNN
[11] = redroot pigweed (Amaranthus retroflexus), read-out: Visual Growth Reduction (%) 14 Days After Application AMARE
[12] = sunflower (Helianthus annuus), read-out: Visual Growth Reduction (%) 14 Days After Application HELAN
[13] = velvetleaf (Abutilon theophrasti), read-out: Visual Growth Reduction (%) 14 Days After Application ABUTH
[14] = wild poinsettia (Euphorbia heterophylla), read-out: Visual Growth Reduction (%) 14 Days After Application EPHHL

In the case of `COC(=O)c1nc(-c2cc3c(cc2F)OC(F)(F)O3)c(F)c(N)c1Cl` [Compound 9], the pest or weed control at 35 g/ha [1, 3] is reported as 85 to 94%, the pest or weed control at 70 g/ha [1, 3] is reported as 85 to 94% and the pest or weed control at 140 g/ha [1, 3] is reported as 95 to 100%. For the same compound, the pest or weed control at 35 g/ha [1, 4] was 45 to 59%, the pest or weed control at 70 g/ha [1, 4] was 60 to 74% and the pest or weed control at 140 g/ha [1, 4] was 75 to 84%. The pest or weed control at 35 g/ha [1, 5] was 60 to 74%, the pest or weed control at 70 g/ha [1, 5] was 60 to 74% and the pest or weed control at 140 g/ha [1, 5] was 75 to 84%. It also gave a pest or weed control at 35 g/ha [1, 6] of 0 to 29%, a pest or weed control at 70 g/ha [1, 6] of 0 to 29% and a pest or weed control at 140 g/ha [1, 6] of 0 to 29%. It also gave a pest or weed control at 35 g/ha [1, 7] of 30 to 44%, a pest or weed control at 70 g/ha [1, 7] of 45 to 59% and a pest or weed control at 140 g/ha [1, 7] of 60 to 74%. It also gave a pest or weed control at 35 g/ha [1, 8] of 95 to 100%, a pest or weed control at 70 g/ha [1, 8] of 95 to 100% and a pest or weed control at 140 g/ha [1, 8] of 95 to 100%. It also gave a pest or weed control at 35 g/ha [2, 9] of 85 to 94%, a pest or weed control at 70 g/ha [2, 9] of 85 to 94% and a pest or weed control at 140 g/ha [2, 9] of 85 to 94%. It also gave a pest or weed control at 35 g/ha [2, 10] of 75 to 84%, a pest or weed control at 70 g/ha [2, 10] of 85 to 94% and a pest or weed control at 140 g/ha [2, 10] of 95 to 100%. It also gave a pest or weed control at 35 g/ha [2, 11] of 0 to 29%, a pest or weed control at 70 g/ha [2, 11] of 0 to 29% and a pest or weed control at 140 g/ha [2, 11] of 0 to 29%. For the same compound, the pest or weed control at 35 g/ha [2, 12] was 85 to 94%, the pest or weed control at 70 g/ha [2, 12] was 85 to 94% and the pest or weed control at 140 g/ha [2, 12] was 95 to 100%. For the same compound, the pest or weed control at 35 g/ha [2, 13] was 75 to 84%, the pest or weed control at 70 g/ha [2, 13] was 85 to 94% and the pest or weed control at 140 g/ha [2, 13] was 95 to 100%. For the same compound, the pest or weed control at 35 g/ha [2, 14] was 75 to 84%, the pest or weed control at 70 g/ha [2, 14] was 85 to 94% and the pest or weed control at 140 g/ha [2, 14] was 85 to 94%.
